In US20250230193A1, “CYCLIC COMPOUND HAVING SELECTIVE KRAS INHIBITORY EFFECT ON HRAS AND NRAS” (CHUGAI SEIYAKU KABUSHIKI KAISHA, priority 2022, published 2025):
Where a SMILES comes first, the peptide text is derived from it. Bridges are numbered along the chain shown (N, C = ends). [ ]: non-standard residue; d: D form. The star is where a group is joined. hPhe(3-Cl-4-CF3) = N[C@@H](CCc1ccc(C(F)(F)F)c(Cl)c1)C(=O)O; NPrPhe(4-CF3) = CCCN[C@@H](Cc1ccc(C(F)(F)F)cc1)C(=O)O; NMeGly(cPent) = CN[C@H](C(=O)O)C1CCCC1; Pro(4,4-F2) = O=C(O)[C@@H]1CC(F)(F)CN1; Hyp = O=C(O)[C@@H]1C[C@@H](O)CN1; NMeL = CN[C@@H](CC(C)C)C(=O)O; Morpholide = C1CN(*)CCO1; NMeA = CN[C@@H](C)C(=O)O; Ac5c = NC1(C(=O)O)CCCC1; Aze = O=C(O)[C@@H]1CCN1; Ac4c = NC1(C(=O)O)CCC1; Sar = CNCC(=O)O

Experiments:
[1] = target: GDP-bound HRAS wild-type protein (Homo sapiens, UniProt P01112); assay: Binding to HRAS by surface plasmon resonance (SPR), Single Cycle Kinetics; conditions: KD ratio HRAS/KRAS, SPR
[2] = target: GDP-bound NRAS wild-type protein (Homo sapiens, UniProt P01111); assay: Binding to NRAS by surface plasmon resonance (SPR), Single Cycle Kinetics; conditions: KD ratio NRAS/KRAS, SPR
Sequence of GDP-bound NRAS wild-type protein (P01111 whole entry): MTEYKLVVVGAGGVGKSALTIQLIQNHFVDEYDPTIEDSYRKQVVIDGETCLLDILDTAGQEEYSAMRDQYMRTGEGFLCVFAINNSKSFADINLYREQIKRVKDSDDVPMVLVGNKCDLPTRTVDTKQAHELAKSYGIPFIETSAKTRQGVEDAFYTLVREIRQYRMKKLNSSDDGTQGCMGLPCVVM

Sequence of GDP-bound HRAS wild-type protein (P01112 whole entry): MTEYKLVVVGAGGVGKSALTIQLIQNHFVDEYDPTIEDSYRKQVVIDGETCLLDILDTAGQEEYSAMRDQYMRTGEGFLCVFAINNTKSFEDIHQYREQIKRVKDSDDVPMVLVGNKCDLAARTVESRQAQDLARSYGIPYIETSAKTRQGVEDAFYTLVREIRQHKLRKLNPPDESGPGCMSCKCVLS

SMILES | HRAS/KRAS (ratio of KD for GDP-bound HRAS wild-type to KD for KRAS) [1] | NRAS/KRAS (ratio of KD for GDP-bound NRAS wild-type to KD for KRAS) [2]
CCCN1C(=O)CN(C)C(=O)[C@@H]2CCN2C(=O)[C@H]([C@@H](C)CC)NC(=O)[C@H](CC(C)C)N(C)C(=O)C[C@@H](C(=O)N2CCOCC2)NC(=O)[C@H](C2CCCC2)N(C)C(=O)C2(CCCC2)NC(=O)[C@@H]2CCCN2C(=O)[C@H](CCc2ccc(C(F)(F)F)c(Cl)c2)NC(=O)CN(C)C(=O)[C@@H]1Cc1ccc(C(F)(F)F)cc1 [PP0337] ([NMeL]I[Aze][Sar][NPrPhe(4-CF3)][Sar][hPhe(3-Cl-4-CF3)]P[Ac5c][NMeGly(cPent)]D-Morpholide; lactam N-11) | B (a compound having 3 or more and less than 10 is denoted as B) | B (a compound having 3 or more and less than 10 is denoted as B)
CCCN1C(=O)CN(C)C(=O)[C@@H]2CCN2C(=O)[C@H]([C@@H](C)CC)NC(=O)[C@H](CC(C)C)N(C)C(=O)C[C@@H](C(=O)N2CCOCC2)NC(=O)[C@H](C2CCCC2)N(C)C(=O)C2(CCC2)NC(=O)[C@@H]2CCCN2C(=O)[C@H](CCc2ccc(C(F)(F)F)c(Cl)c2)NC(=O)CN(C)C(=O)[C@@H]1Cc1ccc(C(F)(F)F)cc1 [PP0338] ([NMeL]I[Aze][Sar][NPrPhe(4-CF3)][Sar][hPhe(3-Cl-4-CF3)]P[Ac4c][NMeGly(cPent)]D-Morpholide; lactam N-11) | B (a compound having 3 or more and less than 10 is denoted as B) | B (a compound having 3 or more and less than 10 is denoted as B)
CCCN1C(=O)CN(C)C(=O)[C@@H]2CCN2C(=O)[C@H]([C@@H](C)CC)NC(=O)[C@H](CC(C)C)N(C)C(=O)C[C@@H](C(=O)N2CCOCC2)NC(=O)[C@H](C2CCCC2)N(C)C(=O)C2(CCCC2)NC(=O)[C@@H]2CC(F)(F)CN2C(=O)[C@H](CCc2ccc(C(F)(F)F)c(Cl)c2)NC(=O)CN(C)C(=O)[C@@H]1Cc1ccc(C(F)(F)F)cc1 [PP0339] ([NMeL]I[Aze][Sar][NPrPhe(4-CF3)][Sar][hPhe(3-Cl-4-CF3)][Pro(4,4-F2)][Ac5c][NMeGly(cPent)]D-Morpholide; lactam N-11) | B (a compound having 3 or more and less than 10 is denoted as B) | B (a compound having 3 or more and less than 10 is denoted as B)
CCCN1C(=O)CN(C)C(=O)[C@@H]2CCN2C(=O)[C@H]([C@@H](C)CC)NC(=O)[C@H](CC(C)C)N(C)C(=O)C[C@@H](C(=O)N2CCOCC2)NC(=O)[C@H](C2CCCC2)N(C)C(=O)C2(CCC2)NC(=O)[C@@H]2CC(F)(F)CN2C(=O)[C@H](CCc2ccc(C(F)(F)F)c(Cl)c2)NC(=O)CN(C)C(=O)[C@@H]1Cc1ccc(C(F)(F)F)cc1 [PP0340] ([NMeL]I[Aze][Sar][NPrPhe(4-CF3)][Sar][hPhe(3-Cl-4-CF3)][Pro(4,4-F2)][Ac4c][NMeGly(cPent)]D-Morpholide; lactam N-11) | B (a compound having 3 or more and less than 10 is denoted as B) | B (a compound having 3 or more and less than 10 is denoted as B)
CCCN1C(=O)CN(C)C(=O)[C@@H]2CCN2C(=O)[C@H]([C@@H](C)CC)NC(=O)[C@H](CC(C)C)N(C)C(=O)C[C@@H](C(=O)N2CCOCC2)NC(=O)[C@H](C2CCCC2)N(C)C(=O)C2(CCCC2)NC(=O)[C@@H]2C[C@@H](OCC)CN2C(=O)[C@H](CCc2ccc(C(F)(F)F)c(Cl)c2)NC(=O)CN(C)C(=O)[C@@H]1Cc1ccc(C(F)(F)F)cc1 [PP0341] ([NMeL]I[Aze][Sar][NPrPhe(4-CF3)][Sar][hPhe(3-Cl-4-CF3)][Hyp](Et)[Ac5c][NMeGly(cPent)]D-Morpholide; lactam N-11) | B (a compound having 3 or more and less than 10 is denoted as B) | B (a compound having 3 or more and less than 10 is denoted as B)
CCCN1C(=O)CN(C)C(=O)[C@@H]2CCN2C(=O)[C@H]([C@@H](C)CC)NC(=O)[C@H](CC(C)C)N(C)C(=O)C[C@@H](C(=O)N2CCOCC2)NC(=O)[C@H](C2CCCC2)N(C)C(=O)C2(CCC2)NC(=O)[C@@H]2C[C@@H](OCC)CN2C(=O)[C@H](CCc2ccc(C(F)(F)F)c(Cl)c2)NC(=O)CN(C)C(=O)[C@@H]1Cc1ccc(C(F)(F)F)cc1 [PP0342] ([NMeL]I[Aze][Sar][NPrPhe(4-CF3)][Sar][hPhe(3-Cl-4-CF3)][Hyp](Et)[Ac4c][NMeGly(cPent)]D-Morpholide; lactam N-11) | B (a compound having 3 or more and less than 10 is denoted as B) | B (a compound having 3 or more and less than 10 is denoted as B)
CCCN1C(=O)[C@@H]2CCN2C(=O)[C@H](C)N(C)C(=O)[C@H]([C@@H](C)CC)NC(=O)[C@H](CC(C)C)N(C)C(=O)C[C@@H](C(=O)N2CCOCC2)NC(=O)[C@H](C2CCCC2)N(C)C(=O)C2(CCCC2)NC(=O)[C@@H]2CCCN2C(=O)[C@H](CCc2ccc(C(F)(F)F)c(Cl)c2)NC(=O)CN(C)C(=O)[C@@H]1Cc1ccc(C(F)(F)F)cc1 [PP0343] ([NMeL]I[NMeA][Aze][NPrPhe(4-CF3)][Sar][hPhe(3-Cl-4-CF3)]P[Ac5c][NMeGly(cPent)]D-Morpholide; lactam N-11) | B (a compound having 3 or more and less than 10 is denoted as B) | C (A compound having a KD ratio of 0.1 or more and less than 3 is denoted as C)
CCCN1C(=O)[C@@H]2CCN2C(=O)[C@H](C)N(C)C(=O)[C@H]([C@@H](C)CC)NC(=O)[C@H](CC(C)C)N(C)C(=O)C[C@@H](C(=O)N2CCOCC2)NC(=O)[C@H](C2CCCC2)N(C)C(=O)C2(CCC2)NC(=O)[C@@H]2CCCN2C(=O)[C@H](CCc2ccc(C(F)(F)F)c(Cl)c2)NC(=O)CN(C)C(=O)[C@@H]1Cc1ccc(C(F)(F)F)cc1 [PP0344] ([NMeL]I[NMeA][Aze][NPrPhe(4-CF3)][Sar][hPhe(3-Cl-4-CF3)]P[Ac4c][NMeGly(cPent)]D-Morpholide; lactam N-11) | B (a compound having 3 or more and less than 10 is denoted as B) | C (A compound having a KD ratio of 0.1 or more and less than 3 is denoted as C)
CCCN1C(=O)[C@@H]2CCN2C(=O)[C@H](C)N(C)C(=O)[C@H]([C@@H](C)CC)NC(=O)[C@H](CC(C)C)N(C)C(=O)C[C@@H](C(=O)N2CCOCC2)NC(=O)[C@H](C2CCCC2)N(C)C(=O)C2(CCCC2)NC(=O)[C@@H]2CC(F)(F)CN2C(=O)[C@H](CCc2ccc(C(F)(F)F)c(Cl)c2)NC(=O)CN(C)C(=O)[C@@H]1Cc1ccc(C(F)(F)F)cc1 [PP0345] ([NMeL]I[NMeA][Aze][NPrPhe(4-CF3)][Sar][hPhe(3-Cl-4-CF3)][Pro(4,4-F2)][Ac5c][NMeGly(cPent)]D-Morpholide; lactam N-11) | B (a compound having 3 or more and less than 10 is denoted as B) | C (A compound having a KD ratio of 0.1 or more and less than 3 is denoted as C)
CCCN1C(=O)[C@@H]2CCN2C(=O)[C@H](C)N(C)C(=O)[C@H]([C@@H](C)CC)NC(=O)[C@H](CC(C)C)N(C)C(=O)C[C@@H](C(=O)N2CCOCC2)NC(=O)[C@H](C2CCCC2)N(C)C(=O)C2(CCC2)NC(=O)[C@@H]2CC(F)(F)CN2C(=O)[C@H](CCc2ccc(C(F)(F)F)c(Cl)c2)NC(=O)CN(C)C(=O)[C@@H]1Cc1ccc(C(F)(F)F)cc1 [PP0346] ([NMeL]I[NMeA][Aze][NPrPhe(4-CF3)][Sar][hPhe(3-Cl-4-CF3)][Pro(4,4-F2)][Ac4c][NMeGly(cPent)]D-Morpholide; lactam N-11) | B (a compound having 3 or more and less than 10 is denoted as B) | C (A compound having a KD ratio of 0.1 or more and less than 3 is denoted as C)
CCCN1C(=O)[C@@H]2CCN2C(=O)[C@H](C)N(C)C(=O)[C@H]([C@@H](C)CC)NC(=O)[C@H](CC(C)C)N(C)C(=O)C[C@@H](C(=O)N2CCOCC2)NC(=O)[C@H](C2CCCC2)N(C)C(=O)C2(CCCC2)NC(=O)[C@@H]2C[C@@H](OCC)CN2C(=O)[C@H](CCc2ccc(C(F)(F)F)c(Cl)c2)NC(=O)CN(C)C(=O)[C@@H]1Cc1ccc(C(F)(F)F)cc1 [PP0347] ([NMeL]I[NMeA][Aze][NPrPhe(4-CF3)][Sar][hPhe(3-Cl-4-CF3)][Hyp](Et)[Ac5c][NMeGly(cPent)]D-Morpholide; lactam N-11) | B (a compound having 3 or more and less than 10 is denoted as B) | C (A compound having a KD ratio of 0.1 or more and less than 3 is denoted as C)
CCCN1C(=O)[C@@H]2CCN2C(=O)[C@H](C)N(C)C(=O)[C@H]([C@@H](C)CC)NC(=O)[C@H](CC(C)C)N(C)C(=O)C[C@@H](C(=O)N2CCOCC2)NC(=O)[C@H](C2CCCC2)N(C)C(=O)C2(CCC2)NC(=O)[C@@H]2C[C@@H](OCC)CN2C(=O)[C@H](CCc2ccc(C(F)(F)F)c(Cl)c2)NC(=O)CN(C)C(=O)[C@@H]1Cc1ccc(C(F)(F)F)cc1 [PP0348] ([NMeL]I[NMeA][Aze][NPrPhe(4-CF3)][Sar][hPhe(3-Cl-4-CF3)][Hyp](Et)[Ac4c][NMeGly(cPent)]D-Morpholide; lactam N-11) | B (a compound having 3 or more and less than 10 is denoted as B) | C (A compound having a KD ratio of 0.1 or more and less than 3 is denoted as C)
CCCN1C(=O)[C@@H]2CCN2C(=O)CN(C)C(=O)[C@H]([C@@H](C)CC)NC(=O)[C@H](CC(C)C)N(C)C(=O)C[C@@H](C(=O)N2CCOCC2)NC(=O)[C@H](C2CCCC2)N(C)C(=O)C2(CCCC2)NC(=O)[C@@H]2CCCN2C(=O)[C@H](CCc2ccc(C(F)(F)F)c(Cl)c2)NC(=O)CN(C)C(=O)[C@@H]1Cc1ccc(C(F)(F)F)cc1 [PP0349] ([NMeL]I[Sar][Aze][NPrPhe(4-CF3)][Sar][hPhe(3-Cl-4-CF3)]P[Ac5c][NMeGly(cPent)]D-Morpholide; lactam N-11) | B (a compound having 3 or more and less than 10 is denoted as B) | C (A compound having a KD ratio of 0.1 or more and less than 3 is denoted as C)
